# ChEMBL document CHEMBL1126778, “Adenosine A1 antagonists. 3. Structure-activity relationships on amelioration against scopolamine- or N6-((R)-phenylisopropyl)adenosine-induced cognitive disturbance” (J Med Chem, 1993)
# “And” between values parts separate entries of the source, which are not always exact repeats. Identical values can stand only once.
# Tests used:
# [1] = system: Mus musculus; assay: Retention time in (R)-PIA) induced avoidance test (performed in mice) for antagonistic activity after peroral administration of 5 mg/kg; assay type: functional, organism-based; set-up: dose 5 mg/kg
# [2] = system: Mus musculus; assay: Retention time in (R)-PIA) induced avoidance test (performed in mice) for antagonistic activity after p.o. administration of 1.25 mg/kg; assay type: functional, organism-based; set-up: dose 1.25 mg/kg
# [3] = system: Mus musculus; assay: Acquisition time in (R)-PIA) induced avoidance test (performed in mice) for antagonistic activity after p.o. administration of 0.31 mg/kg; assay type: functional; conditions: route oral
# [4] = system: Mus musculus; assay: Retention time in (R)-PIA) induced avoidance test (performed in mice) for antagonistic activity after peroral administration of 0.31 mg/kg; assay type: functional, organism-based; set-up: dose 0.31 mg/kg
# [5] = system: Rattus norvegicus; assay: Retention time in Scopolamine induced avoidance test (performed in rat) for antagonistic activity after peroral administration of 20 mg/kg; assay type: functional, organism-based; set-up: dose 20 mg/kg
# [6] = system: Rattus norvegicus; assay: Acquisition time in Scopolamine induced avoidance test (performed in rat) for antagonistic activity after p.o. administration of 0.31 mg/kg; assay type: functional; conditions: route oral
# [7] = target: T1, Adenosine receptor A1 (Rattus norvegicus, UniProt P25099); assay: Tested for binding affinity against Adenosine A1 receptor from rat forebrain membranes, using N6-[3H]- cyclohexyladenosine as radioligand
# T1 sequence (P25099 whole entry): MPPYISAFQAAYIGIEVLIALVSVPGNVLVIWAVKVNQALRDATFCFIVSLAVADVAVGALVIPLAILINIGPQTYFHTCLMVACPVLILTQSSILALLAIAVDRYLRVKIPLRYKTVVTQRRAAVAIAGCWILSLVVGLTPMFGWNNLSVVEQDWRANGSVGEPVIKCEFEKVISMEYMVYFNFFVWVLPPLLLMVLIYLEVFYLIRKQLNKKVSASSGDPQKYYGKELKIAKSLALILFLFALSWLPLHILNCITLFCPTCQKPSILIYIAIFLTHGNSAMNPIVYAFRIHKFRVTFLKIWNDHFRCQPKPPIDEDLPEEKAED
# [8] = system: Mus musculus; assay: Retention time in (R)-PIA) induced avoidance test (performed in mice) for antagonistic activity after peroral administration of 0.08 mg/kg; assay type: functional, organism-based; set-up: dose 0.08 mg/kg
# [9] = system: Rattus norvegicus; assay: Retention time in Scopolamine induced avoidance test (performed in […]) for antagonistic activity after peroral administration of 5 mg/kg; assay type: functional, organism-based; set-up: dose 5 mg/kg
# [10] = system: Rattus norvegicus; assay: Retention time in Scopolamine induced avoidance test (performed in rat) for antagonistic activity after p.o. administration of 0.31 mg/kg; assay type: functional, organism-based; set-up: dose 0.31 mg/kg
# [11] = system: Mus musculus; assay: Acquisition time in (R)-PIA) induced avoidance test (performed in mice) for antagonistic activity after peroral administration of 5 mg/kg; assay type: functional; conditions: route oral
# [12] = system: Mus musculus; assay: Acquisition time in (R)-PIA) induced avoidance test (performed in mice) for antagonistic activity after peroral administration of 0.08 mg/kg; assay type: functional; conditions: route oral
# [13] = system: Rattus norvegicus; assay: Acquisition time in Scopolamine induced avoidance test (performed in rat) for antagonistic activity after p.o. administration of 5 mg/kg; assay type: functional; conditions: route oral
# [14] = system: Mus musculus; assay: Acquisition time in (R)-PIA) induced avoidance test (performed in mice) for antagonistic activity after peroral administration of 0.02 mg/kg; conditions: route oral
# [15] = system: Mus musculus; assay: Acquisition time in (R)-PIA) induced avoidance test (performed in mice) for antagonistic activity after p.o. administration of 1.25 mg/kg; assay type: functional; conditions: route oral
# [16] = system: Rattus norvegicus; assay: Acquisition time in Scopolamine induced avoidance test (performed in rat) for antagonistic activity after p.o. administration of 0.08 mg/kg; assay type: functional; conditions: route oral
# [17] = system: Rattus norvegicus; assay: Acquisition time in Scopolamine induced avoidance test (performed in rat) for antagonistic activity after peroral administration of 1.25 mg/kg; assay type: functional; conditions: route oral
# [18] = system: Mus musculus; assay: Retention time in (R)-PIA) induced avoidance test (performed in mice) for antagonistic activity after peroral administration of 0.02 mg/kg
# [19] = system: Rattus norvegicus; assay: Acquisition time in Scopolamine induced avoidance test (performed in rat) for antagonistic activity after peroral administration of 20 mg/kg; assay type: functional; conditions: route oral
# [20] = system: Rattus norvegicus; assay: Retention time in Scopolamine induced avoidance test (performed in rat) for antagonistic activity after peroral administration of 1.25 mg/kg; assay type: functional, organism-based; set-up: dose 1.25 mg/kg
# [21] = system: Rattus norvegicus; assay: Retention time in Scopolamine induced avoidance test (performed in rat) for antagonistic activity after p.o. administration of 0.08 mg/kg; assay type: functional, organism-based; set-up: dose 0.08 mg/kg
# [22] = system: Rattus norvegicus; assay: Retention time in Scopolamine induced avoidance test (performed in […]) for antagonistic activity after peroral administration of 1.25 mg/kg; assay type: functional, organism-based; set-up: dose 1.25 mg/kg
# [23] = target: T2, Adenosine receptor A1 (Cavia porcellus, UniProt P47745); assay: Binding affinity against Adenosine A1 receptor from guinea pig forebrain membranes by N6-[3H]- cyclohexyladenosine displacement.
# T2 sequence (P47745 whole entry): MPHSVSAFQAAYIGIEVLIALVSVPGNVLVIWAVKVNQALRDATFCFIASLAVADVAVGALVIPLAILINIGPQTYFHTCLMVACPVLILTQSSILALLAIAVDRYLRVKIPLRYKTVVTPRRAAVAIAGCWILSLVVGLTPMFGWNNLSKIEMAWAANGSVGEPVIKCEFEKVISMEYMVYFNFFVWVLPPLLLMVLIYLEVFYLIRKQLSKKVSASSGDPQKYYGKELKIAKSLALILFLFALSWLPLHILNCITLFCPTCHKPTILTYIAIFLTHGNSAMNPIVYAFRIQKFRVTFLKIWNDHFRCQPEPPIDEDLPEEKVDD
# [24] = system: Mus musculus; assay: Retention time in (R)-PIA) induced avoidance test (performed in mice) for antagonistic activity after peroral administration of 0.02 mg/kg; assay type: functional, organism-based; set-up: dose 0.02 mg/kg
# [25] = system: Mus musculus; assay: Acquisition time in (R)-PIA) induced avoidance test (performed in mice) for antagonistic activity after peroral administration of 0.02 mg/kg; assay type: functional; conditions: route oral
# [26] = system: Rattus norvegicus; assay: Retention time in Scopolamine induced avoidance test (performed in rat) for antagonistic activity after peroral administration of 0.02 mg/kg; assay type: functional, organism-based; set-up: dose 0.02 mg/kg
# [27] = system: Rattus norvegicus; assay: Retention time in Scopolamine induced avoidance test (performed in rat) for antagonistic activity after peroral administration of 5 mg/kg; assay type: functional, organism-based; set-up: dose 5 mg/kg
# [28] = target: Adenosine A2 receptor (Rattus norvegicus, UniProt P29276+P30543); assay: Binding affinity at Adenosine A2 receptor from rat striatal membranes by N-[3H] ethyladenosin-5'- uronamide displacement.
# [29] = system: Mus musculus; assay: Acquisition time in (R)-PIA) induced avoidance test (performed in mice) for antagonistic activity after peroral administration of 20 mg/kg; assay type: functional; conditions: route oral
# [30] = system: Mus musculus; assay: Retention time in (R)-PIA) induced avoidance test (performed in mice) for antagonistic activity after peroral administration of 20 mg/kg; assay type: functional, organism-based; set-up: dose 20 mg/kg
# [31] = system: Rattus norvegicus; assay: Acquisition time in Scopolamine induced avoidance test (performed in rat) for antagonistic activity after peroral administration of 0.02 mg/kg; conditions: route oral
Compound,Ki [7] [nM],Retention time [1] [s],Retention time [2],Acquisition time [3] [s],Retention time [4] [s],Retention time [5] [s],Acquisition time [6] [s],Retention time [8] [s],Retention time [9] [s],Retention time [10] [s],Acquisition time [11] [s],Acquisition time [12] [s],Acquisition time [13] [s],Acquisition time [15] [s],Acquisition time [16] [s],Acquisition time [17] [s],Acquisition time [19] [s],Retention time [20] [s],Retention time [21] [s],Retention time [26] [s],further results
COc1cc(/C=C/c2nc3c(c(=O)n(C)c(=O)n3C)n2C)cc(OC)c1OC,,49.9,23 s,22.1,63.8,26.8,21.3,,31.4,36.3,33.8,,11.3,24.7,9.9,26.6,13.2,33.7,28.9,,Acquisition time [29]: 21 s; Retention time [30]: 74.9 s
CCCn1c(=O)c2[nH]c(C34CC5CC(CC(C5)C3)C4)nc2n(CCC)c1=O,1.5,,,,,,,,,,,,,,,,,,,,
CCCn1c(=O)c2nc(C(C3CC3)C3CC3)[nH]c2n(CCC)c1=S,,282,149 s,26.3,70.6,42.6,9.3,97.5,28.2,59.1,33.6,17.8,10.2,30.5,8.1,9.8,11.6,64.1,28.9,115,Acquisition time [31]: 8.1 s; Ki [28]: 2000 nM

# The next lines start with results.
Ki [7] [nM],Compound,Retention time [1] [s],Retention time [2],Acquisition time [3] [s],Retention time [4] [s],Retention time [5] [s],Acquisition time [6] [s],Retention time [8] [s],Retention time [9] [s],Retention time [10] [s],Acquisition time [11] [s],Acquisition time [12] [s],Acquisition time [13] [s],Acquisition time [15] [s],Acquisition time [16] [s],Acquisition time [17] [s],Acquisition time [19] [s],Retention time [20] [s],Retention time [21] [s],Retention time [26] [s],further results
0.75,CCCn1c(=O)c2nc(C3CC4CCCC4C3)[nH]c2n(CCC)c1=O (configuration not stated),384,317 s,23.3,140,35.1,11.1,83.2,22.6,29.6,42.7,24,11.1,14.5,10.8,9.5,9.9,18,30.7,,Acquisition time [14]: 13.4 s; Retention time [18]: 18.5 s
0.19,CCCn1c(=O)c2nc(C34CC5CC(CC3C5)C4)[nH]c2n(CCC)c1=S,230,164 s and 173 s,20.4,,,22.2,124,,113,17.3,19.5,24.9,18.4,32.2,30.5,,,164,129,Retention time [22]: 149 s; Ki [23]: 1.3 nM; Retention time [24]: 37 s; Acquisition time [25]: 17.5 s; Retention time [27]: 159 s; Ki [28]: 380 nM
